# Source: patent publication US20190246647A1, “COMPOSITIONS AND RELATED METHODS FOR MODULATING ENDOSYMBIONTS” (Flagship Pioneering Innovations V, Inc., priority 2017, published 2019)
# “Also recorded” adds a separate entry of the source. {Cy3} = Cy3 dye attached by azide-DBCO click chemistry
# B1: Bcr1 dsRNA: dsRNA hairpin targeting Bcr1 gene (ACYPI32128), SEQ ID NO: 93 (nucleic acid, listed as Acyrthosiphon pisum)
# chain: AUGAAACUGCUGCAUGGCUUUCUGAUUAUUAUGCUGACCAUGCAUCUGAGCAUUCAGUAUGCGUAUGGCGGCCCGUUUCUGACCAAAUAUCUGUGCGAUCGCGUGUGCCAUAAACUGUGCGGCGAUGAAUUUGUGUGCAGCUGCAUUCAGUAUAAAAGCCUGAAAGGCCUGUGGUUUCCGCAUUGCCCGACCGGCAAAGCGAGCGUGGUGCUGCAUAACUUUCUGACCAGCCCGUUUUUUUUUUCGGGCUGGUCAGAAAGUUAUGCAGCACCACGCUCGCUUUGCCGGUCGGGCAAUGCGGAAACCACAGGCCUUUCAGGCUUUUAUACUGAAUGCAGCUGCACACAAAUUCAUCGCCGCACAGUUUAUGGCACACGCGAUCGCACAGAUAUUUGGUCAGAAACGGGCCGCCAUACGCAUACUGAAUGCUCAGAUGCAUGGUCAGCAUAAUAAUCAGAAAGCCAUGCAGCAGUUUCAU
# Key:
# Myzus persicae [1] = test: Cy3-PNA in artificial diet: aphid survival; assay type: in vivo; conditions: 0.5 to 10 mg/L in artificial diet; paper example
# Experimental: Cy3-PNA solutions are formulated with 0, 0.5, 1, 5 or 10 mg/L of Cy3-PNA from Example 11 in 10 mL of 0.5% sucrose and essential amino acids.
# (§1) To prepare for the treatment, aphids are grown in a lab environment and medium. In a climate-controlled room (16 h light photoperiod; 60±5% RH; 20±2° C.), plants are grown in a mixture of vermiculite and perlite and are infested with aphids. To limit maternal effects or health differences between plants, 5-10 adults from different plants are distributed among 10 two-week-old plants, and allowed to multiply to high density for 5-7 days. For experiments, second and third instar aphids are collected from healthy plants and divided into treatments so that each treatment receives approximately the same number of individuals from each of the collection plants.
# Wells of a 96-well plate are filled with 200 μl of artificial aphid diet (Febvay et al., Canadian Journal of Zoology 66(11):2449-2453, 1988) and the plate is covered with parafilm to make a feeding sachet. Artificial diet is either mixed with the solution of sterile water with 0.5% sucrose and essential amino acids only as a negative control, or mixed with Cy3-PNA solutions. Cy3-PNA solutions are mixed with artificial diet to obtain final concentrations between 0.5 to 10 mg/L. […]
# BCR-4 [2] = test: BCR-4 PNA microinjection: BCR-4 expression by RT-qPCR; assay type: in vivo, Acyrthosiphon pisum; conditions: after 7 days
# Experimental: (§2) Microinjection was performed using NanoJet III Auto-Nanoliter Injector with an in-house pulled borosilicate needle (Drummond Scientific; Cat#3-000-203-G/XL). Aphids were transferred using a paint brush to a tubing system connected to vacuum which held them in place during the injection. The injection site was at the ventral thorax of the aphid. The injection solutions were water (negative control) or 321 ng/μl of BCR-4 PNA in water. The injection volume was 20 nl for adult (4th and 5th instar) aphids at a rate of 2 nl/sec. Each treatment group had approximately the same number of individuals injected from each of the collection plants. After injection, aphids were released into a petri dish onto fava bean leaves that had stems in an Eppendorf tube filled with 1 ml water. Survival and fecundity were monitored over the course of the experiment.
# Aphids LSR-1 (which harbor only Buchnera), A. pisum were grown on fava bean plants (Vroma vicia faba from Johnny's Selected Seeds) in a climate-controlled incubator (16 h light/8 h dark photoperiod; 60±5% RH; 25±2° C.). […]
# After 7 days of treatment, RNA was extracted from the remaining aphids in each treatment group. […] RNA concentrations were measured using a nanodrop nucleic acid quantification. BCR-4 relative expression was measured by RT-qPCR. […] RT-qPCR data was analyzed using analytic (Thermo Fisher Scientific, QuantStudio Design and Analysis) software.
# Aphids LSR-1, A. pisum = test: BCR-4 PNA microinjection: aphid survival and fecundity; assay type: in vivo, Acyrthosiphon pisum
# Experimental: as §2
# Aphids LSR-1 (which harbor only Buchnera), A. pisum were grown on fava bean plants (Vroma vicia faba from Johnny's Selected Seeds) in a climate-controlled incubator (16 h light/8 h dark photoperiod; 60±5% RH; 25±2° C.). Prior to being used for aphid rearing, fava bean plants were grown in potting soil at 24° C. with 16 h of light and 8 h of darkness. To limit maternal effects or health differences between plants, 5-10 adults from different plants were distributed among 10 two-week-old plants, and allowed to multiply to high density for 5-7 days. For experiments, fourth and fifth instar aphids were collected from healthy plants and divided into two treatment groups: 1) water (negative control) or 2) BCR-4 PNA in water.
# [3] = tested on: Aphids (LSR-1 strain, Acyrthosiphon pisum); test: BCR-4 PNA leaf perfusion: aphid survival and development; assay type: in vivo; conditions: for effect on aphid development / effect on aphid mortality: leaf perfusion, vs water
# Experimental: Aphids (LSR-1 strain, Acyrthosiphon pisum) were grown on fava bean plants (Vroma vicia faba from Johnny's Selected Seeds) in a climate-controlled incubator (16 h light/8 h dark photoperiod; 60±5% RH; 25±2° C.). Prior to being used for aphid rearing, fava bean plants were grown in potting soil at 24° C. with 16 h of light and 8 h of darkness. To limit maternal effects or health differences between plants, 5-10 adults from different plants were distributed among 10 two-week-old plants and allowed to multiply to high density for 5-7 days. For experiments, first and second instar aphids were collected from healthy plants and divided into two different treatment groups: 1) those allowed to feed on leaves perfused with water, and, 2) those allowed to feed on leaves perfused with a BCR-4 PNA solution in water.
# For each leaf perfusion, approximately 1 ml of water (negative control) or a 1 uM BCR-4 PNA solution was injected into a fava bean leaf. The stem of the leaf was then placed in a 1.5 ml Eppendorf that was sealed with parafilm. The leaf stem was then placed into a deep petri dish (Fisher Scientific, Cat# FB0875711) and aphids were applied to the leaves of the plant and allowed to feed. Old leaves were replaced with new, freshly injected leaves every 2-3 days throughout the experiment. For each treatment, 60 aphids were placed onto each leaf. Aphids were monitored daily for survival and dead aphids were removed when they were discovered. In addition, the developmental stage (1st, 2nd, 3rd, 4th, and 5th instar) was determined daily throughout the experiment.
# Buchnera = test: BCR-4 PNA leaf perfusion: Buchnera/aphid copies by qPCR; assay type: in vivo; conditions: for effect on Buchnera titers: vs water
# Experimental: After 5 and 6 days of treatment, DNA was extracted from dead aphids from each treatment group. Briefly, the aphid body surface was sterilized by dipping the aphid into a 6% bleach solution for approximately 5 seconds. Aphids were then rinsed in sterile water and DNA was extracted from each individual aphid using a DNA extraction kit (Qiagen, DNeasy kit) according to manufacturer's instructions. DNA concentration was measured using a nanodrop nucleic acid quantification, and Buchnera and aphid DNA copy numbers were measured by qPCR. The primers used for Buchnera were Buch_groES_18F ([…]; SEQ ID NO: 101) and Buch_groES_98R ([…]; SEQ ID NO: 102) (Chong and Moran, 2016 PNAS). The primers used for aphid were ApEF1a 107F ([…]; SEQ ID NO: 103) and ApEF1a 246R ([…]; SEQ ID NO: 104) (Chong and Moran, 2016 PNAS). qPCR was performed using a qPCR amplification ramp of 1.6 degrees C./s and the following conditions: 1) 95° C. for 10 minutes, 2) 95° C. for 15 seconds, 3) 55° C. for 30 seconds, 4) repeat steps 2-3 40×, 5) 95° C. for 15 seconds, 6) 55° C. for 1 minute, 7) ramp change to 0.15 degrees C./s, 8) 95° C. for 1 second. qPCR data was analyzed using analytic (Thermo Fisher Scientific, QuantStudio Design and Analysis) software.
# BCR-4 [4] = test: BCR-4 PNA leaf perfusion: BCR-4 expression by RT-qPCR; assay type: in vivo, Acyrthosiphon pisum; conditions: for effect on BCR-4 expression: day 7, vs water
# Experimental: After 7 days of treatment, RNA was extracted from the remaining aphids in each treatment group. Briefly, the aphid body surface was sterilized by dipping the aphid into a 6% bleach solution for approximately 5 seconds. Aphids were then rinsed in sterile water and total RNA was extracted from each individual aphid using the RNA extraction kit (Qiagen miRNeasy kit) according to manufacturer's instructions. RNA concentrations were measured using a nanodrop nucleic acid quantification. BCR-4 relative expression was measured by RT-qPCR. The primers used were ApBCR-4F ([…]; SEQ ID NO: 107) and ApBCR-4R ([…]; SEQ ID NO: 108). The internal reference gene primers were for Actin (housekeeping gene). The forward sequence was […]; SEQ ID NO: 109 and the reverse sequence was […]; SEQ ID NO: 110. RT-qPCR was performed using a qPCR amplification ramp of 1.6 degrees C./s and the following conditions: 1) 48° C. for 30 min, 2) 95° C. for 10 minutes, 3) 95° C. for 15 seconds, 4) 60° C. for 1 minute, 5) repeat steps 3-4 40×, 6) 95° C. for 15 seconds, 7) 60° C. for 1 minute, 8) ramp change to 0.15 degrees C./s, 9) 95° C. for 1 second. RT-qPCR data was analyzed using analytic (Thermo Fisher Scientific, QuantStudio Design and Analysis) software.
# At 7 post-treatment, RNA was extracted from live aphids and RT-pPCR was done as described above (see Microinjection Delivery Experimental Design) to quantify expression of BCR-4.
# [5] = tested on: its target bacterial strains; conditions: cited from earlier work
# Rhopalosiphum maidis = test: Bcr1 dsRNA in artificial diet: aphid survival; assay type: in vivo; conditions: 0.5 to 5 μg/ml in artificial diet; paper example
# Experimental: dsRNA solutions are formulated with 0 (negative control), 0.5, 1, or 5 μg/ml of Bcr1 dsRNA from Example 2 in 10 mL of TE buffer with 0.5% sucrose and essential amino acids.
# as §1, with “C.), fava bean” for “C.),”
# (§3) Wells of a 96-well plate are filled with 200 μl of artificial aphid diet (Febvay et al., Canadian Journal of Zoology 66(11):2449-2453, 1988) and the plate is covered with parafilm to make a feeding sachet. […]
# Myzus persicae [6] = test: Bcr1 dsRNA in artificial diet: aphid survival; assay type: in vivo; conditions: 0.5 to 5 μg/ml in artificial diet; paper example
# Experimental: dsRNA solutions are formulated with 0 (negative control), 0.5, 1, or 5 μg/mL of Bcr1 dsRNA from Example 7 in 10 mL of TE buffer with 0.5% sucrose and essential amino acids.
# as §1, with “(16 hr” for “(16 h”
# as §3
# [7] = vs water, listed as PNA to BCR-4
molecule,measurement,setting,value
"Cy3-gaatgcagctgc (antisense GAATGCAGCTGC; all peptide nucleic acid (PNA), 5' {Cy3}) [Bcr1 specific Cy3-PNA, antisense PNA against Bcr1 joined to Cy3 dye through click chemistry]",survival rate of aphids vs control,Myzus persicae [1],decreased
"YGRKKRRQRRR-CGTACAATAATCTCATGG (PNA against BCR-4; UniProt P04608 47-57, looked up, fragment) [BCR-4 PNA, peptide nucleic acid (PNA) to BCR-4 fused to a cell penetrating peptide (Tat)]","expression of BCR-4, water-injected fold higher than BCR-4 PNA-injected","BCR-4 [2]; microinjection 20 nl of 321 ng/μl, 4th and 5th instar",approximately 2 fold
same,effect on BCR-4 expression,"BCR-4 [2]; microinjection, vs water",knockdown of BCR-4; also recorded: reduced BCR-4 expression
same,offspring produced per adult,"Aphids LSR-1, A. pisum; at 3 and 7 days post-treatment",4 offspring/adult
same,effect on aphid fecundity,"Aphids LSR-1, A. pisum; vs water",slight decrease in aphid fecundity
same,effect on aphid fecundity,"Aphids LSR-1, A. pisum; [7]",decreased fecundity
same,effect on aphid survival,"Aphids LSR-1, A. pisum; [7]",slight decrease in survival; also recorded: decrease in insect survival
same,aphids in the 3rd instar stage,"[3]; leaf perfusion 1 uM, day 2 post-treatment, first and second instar aphids",8%
same,aphids alive,"[3]; leaf perfusion 1 uM, day 7",30%
same,effect on aphid development,[3],delayed aphid development
same,effect on aphid mortality,[3],increased aphid death
same,effect on aphid development,[3]; listed as PNA to BCR-4,slowed aphid development
same,effect on aphid mortality,[3]; listed as PNA to BCR-4,increased aphid mortality
same,mean ratio Buchnera/aphid copies,Buchnera; dead aphids collected 5 and 6 days post-treatment,approximately 57
same,effect on Buchnera titers,Buchnera,increased Buchnera titers
same,effect on Buchnera titers,Buchnera; listed as PNA to BCR-4,misbalance in Buchnera titers
same,effect on BCR-4 expression,BCR-4 [4],reduction of BCR-4 expression
same,effect on BCR-4 expression,BCR-4 [4]; listed as PNA to BCR-4,knocked down BCR-4 expression
same,"median transcript levels of BCR-4, fold lower than water",BCR-4 [4]; living aphids after 7 days,approximately 3 fold
nisin,concentration showing antimicrobial activity,[5],single-digit nanomolar concentration
B1,survival rate of aphids vs control,Rhopalosiphum maidis,decreased
same,survival rate of aphids vs control,Myzus persicae [6],decreased
